Experimental findings from EP0606804B1, “Marker for neurotensin receptor” (MARTINEX R & D INC., priority 1992, dated 2001) are described below.

Where no end group is shown, it is not given here. FTC = fluorescein thiocarbamyl

A short description of one series: Stability / shelf life. It is filed as physicochemical. As to conditions: protected from light and maintained at 4°C.
The next series in a line: Solubility. The format is physicochemical. The conditions noted are these: distilled water or aqueous buffer.
Series [1] in a line: Toxicity (statement, no method given).
In series [2] the target is T1, neurotensin receptor on purified brain membranes from adult male mice (mouse, UniProt O88319 1-424).
T1 construct: whole, on cells; This is the native receptor in a brain membrane preparation, not on intact cells; also called mouse brain membranes
In words: competition with 0.1 nM 125I-Tyr3-neurotensin on mouse brain membranes, filtration, 20 min at 22 C.

T1 sequence (O88319 whole entry): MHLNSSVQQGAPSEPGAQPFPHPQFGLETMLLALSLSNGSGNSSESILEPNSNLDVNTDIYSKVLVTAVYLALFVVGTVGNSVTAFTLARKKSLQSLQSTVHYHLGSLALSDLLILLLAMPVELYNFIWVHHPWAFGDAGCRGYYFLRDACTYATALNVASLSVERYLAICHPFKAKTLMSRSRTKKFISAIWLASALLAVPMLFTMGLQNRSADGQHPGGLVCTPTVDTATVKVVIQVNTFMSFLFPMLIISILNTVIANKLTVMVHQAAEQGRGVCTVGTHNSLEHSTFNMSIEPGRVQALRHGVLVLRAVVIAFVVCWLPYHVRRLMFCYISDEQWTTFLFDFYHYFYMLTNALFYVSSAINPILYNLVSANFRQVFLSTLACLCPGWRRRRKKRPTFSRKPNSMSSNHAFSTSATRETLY

Take `CC[C@H](C)[C@H](NC(=O)[C@H](Cc1ccc(O)cc1)NC(=O)[C@@H]1CCCN1C(=O)[C@H](CCCNC(=N)N)NC(=O)[C@H](CCCNC(=N)N)NC(=O)[C@@H]1CCCN1C(=O)[C@H](CCCCN)NC(=O)[C@H](CC(N)=O)NC(=O)[C@H](CCC(=O)O)NC(=O)[C@H](Cc1ccc(O)cc1)NC(=O)[C@H](CC(C)C)NC(=O)[C@H](CCC(=O)O)NC(=S)Nc1ccc2c(c1)C(=O)OC21c2ccc(O)cc2Oc2cc(O)ccc21)C(=O)N[C@@H](CC(C)C)C(=O)O` [N-FTC-[Glu^1]NT, N-fluoresceyl thiocarbamyl-[Glu^1] neurotensin]: in the series “Stability / shelf life”, the stability entry is on record as “stable”. In addition, the solubility result in the series “Solubility” is on record as “freely soluble”. The toxicity in series [1] is given as 100% non-toxic.

B1: N-fluoresceyl thiocarbamyl-[Glu1] neurotensin (peptide)
peptide: {FTC}-ELYENKPRRPYIL
notes: Synthetic 13-residue neurotensin analogue with Glu in place of pGlu at position 1, carrying one fluorescein per peptide; Molecular weight 2080; also called N-FTC-[Glu1]NT; FTC-[Glu1]NT
On to B1, for which the IC50 (commonly the concentration that inhibits the measured activity by half) in series [2] was 0.55 nM.
